Data: the supplement of paper PMC10627819

Tests used:
S. aureus Newman [1] = assay: fitness (endpoint OD595 vs no drug) (fraction); higher = more growth
Method in brief: (§1)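 Fitness was defined as the optical density at the transition into stationary phase relative to the robust mean of no-drug control wells. Values were capped at 1. Cultures were started at OD595 0.01 in 384-well plates (30 µl, or 55 µl for S. pneumoniae) in TSB, LB Lennox or CY at 37 °C. OD595 was recorded every 30 min over 14 h, with the first reading subtracted as background.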

S. pneumoniae D39V [2] = assay: as above
Method in brief: as §1

B. subtilis 168 [3] = assay: Bliss interaction score (quartile over a dose matrix) (fitness difference); higher = more antagonism (negative = synergy)
Method in brief: (§2)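 Growth in each well was taken as OD595 at entry into stationary phase. Dividing by the plate's robust no-drug mean and capping at 1 gave fitness, and single-drug fitness was inferred from the combination data. The Bliss score, observed minus product-expected fitness, is summarised by quartiles over technical, biological and donor/recipient replicates.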

S. aureus DSM 20231 = assay: as above
Method in brief: as §2

S. aureus Newman [4] = assay: as above
Method in brief: as §2

S. pneumoniae D39V [5] = assay: as above
Method in brief: as §2

B. subtilis 168 [6] = assay: fitness (endpoint OD595 vs no drug) (fraction); higher = more growth
Method in brief: as §1
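Wherever Bliss interaction score (quartile over a dose matrix) is given: first quartile when negative (synergy) and third quartile when positive (antagonism).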

C/C(=C\C(=O)OCCCCCCCCC(=O)O)C[C@@H]1OC[C@H](C[C@@H]2O[C@H]2[C@@H](C)[C@H](C)O)[C@@H](O)[C@H]1O [Pseudomonic acid] + CN1C2=CC=CC=C2N=C3C1=CC=CC3=O [Pyocyanin]
fitness, S. aureus Newman [1], one replicate
Conditions	first compound 0.0313 µg/mL	first compound 0.0625 µg/mL	first compound 0.125 µg/mL
partner 1.25 µg/mL	0.0664	0.0399	0.0453
partner 2.5 µg/mL	0.0672	0.0381	0.0514
partner 5 µg/mL	0.0481	0.0417	0.057

fitness, S. pneumoniae D39V [2]
Conditions	first compound 0.03 µg/mL	first compound 0.06 µg/mL	first compound 0.12 µg/mL
partner 0.325 µg/mL	0.955	0.849	0.611
partner 0.65 µg/mL	0.932	0.843	0.554
partner 1.3 µg/mL	–	0.55	0.395

Conditions	Bliss interaction score
B. subtilis 168 [3]	-0.0558
S. aureus DSM 20231	0.0163
S. aureus Newman [4]	0.0185
S. pneumoniae D39V [5]	-0.0764

C/C(=C\C(=O)OCCCCCCCCC(=O)O)C[C@@H]1OC[C@H](C[C@@H]2O[C@H]2[C@@H](C)[C@H](C)O)[C@@H](O)[C@H]1O [Pseudomonic acid] + Cc1cc(NS(=O)(=O)c2ccc(N)cc2)no1 [Sulfamethoxazol]
fitness, S. aureus Newman [1], one replicate
Conditions	first compound 0.0313 µg/mL	first compound 0.0625 µg/mL	first compound 0.125 µg/mL
partner 1 µg/mL	0.0339	0.0352	0.0377
partner 2 µg/mL	0.0298	0.0242	0.0254
partner 4 µg/mL	0.0109	0.0216	0.0232

fitness, S. pneumoniae D39V [2]
Conditions	first compound 0.03 µg/mL	first compound 0.06 µg/mL	first compound 0.12 µg/mL
partner 1 µg/mL	0.907	0.784	–
partner 2 µg/mL	0.896	0.776	–
partner 4 µg/mL	0.877	0.769	0.579

Conditions	Bliss interaction score
B. subtilis 168 [3]	-0.0453
S. aureus DSM 20231	-0.0246
S. aureus Newman [4]	-0.0317
S. pneumoniae D39V [5]	-0.0659

CCC[C@@H]1C[C@@H](C(=O)N[C@@H]([C@H]2O[C@H](SC)[C@H](O)[C@@H](O)[C@H]2O)[C@H](C)Cl)N(C)C1 [Clindamycin] + CN(C)c1cc(NC(=O)CNC(C)(C)C)c(O)c2c1C[C@H]1C[C@H]3[C@H](N(C)C)C(O)=C(C(N)=O)C(=O)[C@@]3(O)C(O)=C1C2=O [Tigecycline]
fitness, B. subtilis 168 [6], one replicate
Conditions	first compound 0.0039 µg/mL	first compound 0.0078 µg/mL	first compound 0.0156 µg/mL	first compound 0.0625 µg/mL	first compound 0.125 µg/mL	first compound 0.25 µg/mL
partner 0.039 µg/mL	0.986	0.866	0.862	–	–	–
partner 0.078 µg/mL	≥ 1	0.88	0.831	–	–	–
partner 0.125 µg/mL	–	–	–	0.809	0.656	0.44
partner 0.156 µg/mL	0.906	0.81	0.908	–	–	–
partner 0.25 µg/mL	–	–	–	0.722	0.575	0.342
partner 0.5 µg/mL	–	–	–	0.743	0.601	0.378

Conditions	fitness
B. subtilis 168 [6], first compound 0.0625 µg/mL, partner 0.039 µg/mL	0.596
B. subtilis 168 [6], first compound 0.0625 µg/mL, partner 0.078 µg/mL	0.537
B. subtilis 168 [6], first compound 0.0625 µg/mL, partner 0.156 µg/mL	0.538
B. subtilis 168 [6], first compound 0.125 µg/mL, partner 0.039 µg/mL	0.387
B. subtilis 168 [6], first compound 0.125 µg/mL, partner 0.078 µg/mL	0.38
B. subtilis 168 [6], first compound 0.125 µg/mL, partner 0.156 µg/mL	0.374
B. subtilis 168 [6], first compound 0.25 µg/mL, partner 0.039 µg/mL	0.378
B. subtilis 168 [6], first compound 0.25 µg/mL, partner 0.078 µg/mL	0.365
B. subtilis 168 [6], first compound 0.25 µg/mL, partner 0.156 µg/mL	0.369
S. aureus Newman [1], first compound 0.0312 µg/mL, partner 0.039 µg/mL	0.708
S. aureus Newman [1], first compound 0.0312 µg/mL, partner 0.078 µg/mL	0.715
S. aureus Newman [1], first compound 0.0312 µg/mL, partner 0.156 µg/mL	0.709
S. aureus Newman [1], first compound 0.125 µg/mL, partner 0.039 µg/mL	0.118
S. aureus Newman [1], first compound 0.125 µg/mL, partner 0.078 µg/mL	0.112
S. aureus Newman [1], first compound 0.125 µg/mL, partner 0.156 µg/mL	0.113
S. pneumoniae D39V [2], first compound 0.0125 µg/mL, partner 0.325 µg/mL	0.668
S. pneumoniae D39V [2], first compound 0.0125 µg/mL, partner 0.65 µg/mL	0.695
S. pneumoniae D39V [2], first compound 0.0125 µg/mL, partner 1.3 µg/mL	0.652
S. pneumoniae D39V [2], first compound 0.015 µg/mL, partner 0.65 µg/mL	0.753
S. pneumoniae D39V [2], first compound 0.015 µg/mL, partner 1.3 µg/mL	0.755
S. pneumoniae D39V [2], first compound 0.015 µg/mL, partner 2.6 µg/mL	0.815
S. pneumoniae D39V [2], first compound 0.025 µg/mL, partner 0.325 µg/mL	0.503
S. pneumoniae D39V [2], first compound 0.025 µg/mL, partner 0.65 µg/mL	0.461
S. pneumoniae D39V [2], first compound 0.025 µg/mL, partner 1.3 µg/mL	0.442
S. pneumoniae D39V [2], first compound 0.03 µg/mL, partner 0.65 µg/mL	0.653
S. pneumoniae D39V [2], first compound 0.03 µg/mL, partner 1.3 µg/mL	0.66
S. pneumoniae D39V [2], first compound 0.03 µg/mL, partner 2.6 µg/mL	0.673
S. pneumoniae D39V [2], first compound 0.05 µg/mL, partner 0.325 µg/mL	0.233
S. pneumoniae D39V [2], first compound 0.05 µg/mL, partner 0.65 µg/mL	0.2
S. pneumoniae D39V [2], first compound 0.05 µg/mL, partner 1.3 µg/mL	0.189
S. pneumoniae D39V [2], first compound 0.06 µg/mL, partner 0.65 µg/mL	0.551
S. pneumoniae D39V [2], first compound 0.06 µg/mL, partner 1.3 µg/mL	0.557
S. pneumoniae D39V [2], first compound 0.06 µg/mL, partner 2.6 µg/mL	0.539

Conditions	Bliss interaction score
B. subtilis 168 [3]	-0.0489
S. aureus DSM 20231	-0.0949
S. aureus Newman [4]	-0.0653
S. pneumoniae D39V [5]	-0.0934

CCC[C@@H]1C[C@@H](C(=O)N[C@@H]([C@H]2O[C@H](SC)[C@H](O)[C@@H](O)[C@H]2O)[C@H](C)Cl)N(C)C1 [Clindamycin] + C/C(=C\C(=O)OCCCCCCCCC(=O)O)C[C@@H]1OC[C@H](C[C@@H]2O[C@H]2[C@@H](C)[C@H](C)O)[C@@H](O)[C@H]1O [Pseudomonic acid]
fitness, S. aureus Newman [1], one replicate
Conditions	first compound 0.0312 µg/mL	first compound 0.0625 µg/mL	first compound 0.125 µg/mL
partner 0.0313 µg/mL	0.0504	0.0504	0.0456
partner 0.0625 µg/mL	0.046	0.0445	0.0496
partner 0.125 µg/mL	0.0438	0.0538	0.0533

fitness, S. pneumoniae D39V [2]
Conditions	first compound 0.0125 µg/mL	first compound 0.015 µg/mL	first compound 0.025 µg/mL	first compound 0.03 µg/mL	first compound 0.05 µg/mL	first compound 0.06 µg/mL
partner 0.03 µg/mL	0.78	0.836	0.499	0.703	0.211	–
partner 0.06 µg/mL	0.716	0.69	0.4	–	0.17	0.281
partner 0.12 µg/mL	0.237	0.326	0.119	0.229	0.0924	0.16

Conditions	Bliss interaction score
B. subtilis 168 [3]	0.0726
S. aureus DSM 20231	0.0297
S. aureus Newman [4]	0.0412
S. pneumoniae D39V [5]	-0.15
